Our source for the IC50 values is ChEMBL document CHEMBL1133344, “SAR studies of 2-o-substituted-benzoyl- and 2-alkanoyl-cyclohexane-1,3-diones as inhibitors of 4-hydroxyphenylpyruvate dioxygenase” (Bioorg Med Chem Lett, 2000).

T1 sequence (Q02110 whole entry): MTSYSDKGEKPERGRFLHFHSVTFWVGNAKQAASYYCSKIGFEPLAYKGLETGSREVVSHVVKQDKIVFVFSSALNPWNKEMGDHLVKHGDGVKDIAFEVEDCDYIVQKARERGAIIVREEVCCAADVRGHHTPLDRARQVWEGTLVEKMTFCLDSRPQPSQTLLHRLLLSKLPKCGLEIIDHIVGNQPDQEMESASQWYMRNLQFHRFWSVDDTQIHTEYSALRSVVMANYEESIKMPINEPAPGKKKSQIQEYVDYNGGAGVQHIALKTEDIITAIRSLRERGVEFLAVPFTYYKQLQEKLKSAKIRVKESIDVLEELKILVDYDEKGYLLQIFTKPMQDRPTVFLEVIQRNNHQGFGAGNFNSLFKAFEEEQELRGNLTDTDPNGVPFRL

The first test addresses T1, 4-hydroxyphenylpyruvate dioxygenase (Sus scrofa, UniProt Q02110). Nature of the test: In vitro inhibition of 4-hydroxyphenylpyruvate dioxygenase obtained from purified pig liver by enol-borate method.
For the compound `O=C1CCCC(=O)C1C(=O)c1ccccc1`, the IC50 stood at 11.2 µM.

Another test has as its target T1, 4-hydroxyphenylpyruvate dioxygenase. Nature of the test: Inhibition of 4-hydroxyphenylpyruvate dioxygenase of purified pig liver by enol-borate method.
On to `O=C1CCCC(=O)C1C(=O)c1ccccc1Cl`, for which the half-maximal inhibitory concentration (IC50) came out at 0.5 µM. Same read-out and setting: under `O=C1CCCC(=O)C1C(=O)c1ccc(C(F)(F)F)cc1[N+](=O)[O-]` [NITISINONE] stands 0.04 µM; under `O=C1CCCC(=O)C1C(=O)c1ccccc1C(F)(F)F`, 0.25 µM.

On to `Cc1ccccc1C(=O)C1C(=O)CCCC1=O`, for which the IC50 turned out to be 3.75 µM. Turning to `CC(C)C(=O)C1C(=O)CCCC1=O`, the half-inhibitory concentration (IC50) is 93.3 µM. The same measure, in the same setting: under `O=C1CCCC(=O)C1C(=O)C1CC1` stands 6 µM; under `CCC(=O)C1C(=O)CCCC1=O`, 17.8 µM. As to `COc1ccccc1C(=O)C1C(=O)CCCC1=O`, the IC50 was determined as 11.7 µM. On the same count and under the same terms, to `CC(=O)C1C(=O)CCCC1=O` belongs 11.2 µM; to `O=C1CCCC(=O)C1C(=O)C1CCCCC1`, 365 µM; to `O=C1CCCC(=O)C1C(=O)c1ccccc1Br`, 0.56 µM.

Consider `O=C1CCCC(=O)C1C(=O)c1ccccc1I`, for which the concentration for half-maximal inhibition (IC50) is 0.76 µM. Regarding `O=C1CCCC(=O)C1C(=O)c1ccccc1[N+](=O)[O-]`, the midpoint of inhibition, the IC50, lay at 0.16 µM.

A word on the IC50: it is the concentration that inhibits the measured activity by half. A higher IC50 goes with weaker potency in that assay.
